Results as given in US20080206181A1, “Hair treatment compositions containing sophora alkaloids” (Conopco Inc, d/b/a UNILEVER, priority 2007, published 2008).
Marks after values point to notes of the source that are not given here.

Columns and labels:
[1] = Protein leaching from hair fibres (BCA protein assay kit); details: for Protein leaching from hair fibres, Average: 1% test material + 2% SDS, pH about 6.0, 10 mg hair fibres, 37° C., 24 h; for Effect on protein leaching induced by SDS (in words): summary of Table 1
Experimental: Protein leaching assays were conducted in order to find out the protective effect of test materials on protein leaching from hair.
Chinese hair fibres from the same head were washed with shampoo and air dried. Then they were immersed in ether for 2 min to remove lipid components and rinsed with running water and air. The hair fibres were cut into ˜2 mm length with scissors.
A 200 μL solution consisting of 1% test material (matrine or oxymatrine respectively) and 2% sodium dodecyl sulphate (SDS), where pH was adjusted to about 6.0 with citric acid, was incubated with 10 mg hair fibres at 37° C. for 24 h.
Protein leaching from the treated hair fibres was determined with a BCA protein assay kit.
The data were collected and analysed with One-Way ANOVA by using SPSS software. LSD was used when variances were equal, and Tamhane's T2 was used when variances were not equal.

[2] = Differential scanning calorimetry (DSC) of bleach-damaged hair fibres; details: for Average Denaturation Temperature Td / Sub From damaged (Td increase over damaged hair): bleached hair immersed in 1% aqueous solution at pH 5.5 for 1 hour; for Repair of damage caused by bleaching hair fibre (in words): summary of Table 2
Experimental: To prepare damaged hair fibre, European hair fibres were bleached with L' Oreal Platifiz precision powder and Oxydant crème (1:1.5) for 30 min, rinsed completely with running tap water and naturally dried overnight before the next application. These hair fibres were immersed in a 1% aqueous solution of test material (matrine or oxymatrine respectively) and water (as a control) at pH 5.5 (adjusted with HCl and NaOH) for 1 hour respectively, rinsed with distilled water for 30 sec and naturally dried overnight and then they were cut into ˜2 mm lengths with scissors.
For the DSC investigation a Mettler Toledo DSC823e analyser was used. About 6 mg of sample was weighed into a pressure resistant (20 bar), stainless steel, large volume pan (120 μl capacity). 50 μl of water was added and the pan was sealed. Samples were then mixed using a rotary mixer and left overnight to allow the water to equilibrate throughout the sample. Samples were run through a temperature programme of […] at a rate of 10° C./min in 30 ml/min nitrogen atmosphere. The helix transition temperature was collected and analyzed with one-way ANOVA. Each sample was carried out three times.

| SMILES | Protein leaching from hair fibres, Average ([1]; 2nd Run) | Protein leaching from hair fibres, Average ([1]; 1st Run) | Effect on protein leaching induced by SDS (in words) [1] | Average Denaturation Temperature Td ([2]; 1st run) | Sub From damaged (Td increase over damaged hair) ([2]; 1st run) [°C] | Average Denaturation Temperature Td ([2]; 1st run, listed as oxymatrine) [°C] | Average Denaturation Temperature Td ([2]; 2nd run) | Sub From damaged (Td increase over damaged hair) ([2]; 2nd run) | Repair of damage caused by bleaching hair fibre (in words) [2] | Average Denaturation Temperature Td ([2]; 1st run, listed as matrine) [°C] |
| --- | --- | --- | --- | --- | --- | --- | --- | --- | --- | --- |
| O=C(O)CC(O)(CC(=O)O)C(=O)O [Citric acid] | 1.121 µg/mg | – | – | – | – | – | – | – | – | – |
| O=C1CCC[C@@H]2[C@H]3CCC[N+]4([O-])CCC[C@@H](CN12)[C@@H]34 (single isomer, unassigned; (+)) [Oxymatrine, (+)-oxymatrine] | 1.035** μg/mg | 0.854** μg/mg | reduce protein leaching | 152.24** ° C. | 9.68 | 152.24 | 150.67** ° C. | 7.49 | fully repair the damage | – |
| O=C1CCC[C@@H]2[C@H]3CCCN4CCC[C@@H](CN12)[C@@H]34 [Matrine, (+)-matrine] | 1.105* μg/mg | 0.792** μg/mg | reduce protein leaching | 148.00** ° C. | 5.43 | – | 148.07** ° C. | 4.89 | fully repair the damage | 148 |
